Measured values: patent EP1153612A1, “ANTICANCER AGENT POTENTIATORS” (Tsuruo, Takashi, priority 1999, dated 2000)
Where a SMILES comes first, the peptide text is derived from it. [ ]: non-standard residue; d: D form. The star is where a group is joined. Nva = CCC[C@H](N)C(=O)O; Cbz = O=C(OCc1ccccc1)*; OtBu = CC(C)(C)O*

Columns and labels:
[1] = test system: human colon adenocarcinoma cell HT-29; experiment: Sensitivity of cells to anticancer drug by colony formation method (M phase-synchronized cells, with or without proteasome inhibiting agent); type: cell-based; conditions: for effect of each inhibiting agent on etoposide sensitivity: etoposide 10 µg/ml, MG132, MG115 2.5 µM, E64, ZLLal 25 µM, FIG. 2; for change of cell-killing effect of camptothecin: PSI, MG132 2.5 µM 13 hours, camptothecin 4 hours, FIGS. 15 and 16
Procedure: In the glucose starvation environment found in the solid cancer, the effect of combined use of the proteasome inhibitor in a human colon adenocarcinoma cell HT-29 with the anticancer drug targeting topoisomerase II was tested.
Concerning culture media, for a culture condition in a normal state, RPMI 1640 medium (Nissui Pharmaceutical Co.-made) to which a 5% FBS (fetal bovine serum) was added and for the culture condition in the glucose starvation state symbolically found in the solid cancer, RPMI 1640 medium (Lifetech Oriental-made), lacking glucose, in which the 5% FBS was added were used, respectively. Culture was carried out using a CO2 incubator (Tabai Espec-made) under conditions of 5% CO2/95% air and humidity 100%.
In order to test sensitivity to the anticancer drug, the cell cycle synchronization culture methodwas employed. Nocodazol (Sigma made) was used to synchronize the cell cycle, cells in a logarithmic proliferation phase were treated with 40 ng/ml Nocodazol for 9 hours, and cells accumulated in cell division phase (Mpahse) were collected by gentle pipetting. M phase-synchronized cells collected through these steps were washed with PBS (phosphate buffered saline) followed by inoculation of 1×10^5 cells per well of 12 well-culture plate.
M phase-synchronized cells were cultured under the normal condition and the glucose starvation condition to conduct treatments with the proteasome inhibiting agent and the anticancer drug as follows. For cells under the glucose starvation condition, the culture medium, to which the proteasome inhibiting agent and the protease inhibiting agent not inhibiting proteasome were added as the control group, and the culture medium, to which no inhibiting agent has been added, was used. For cells under the normal condition, the culture medium, to which each inhibiting agent was not added, was used. After inoculation of cells, culture was carried out for 13 hours in each culture medium. […]
Sensitivity of cells to the anticancer drug was measured using the colony formation method. As described above, cells treated with the proteasome inhibiting agent and the anticancer drug were washed with PBS followed by soaking in trypsin (Lifetech Oriental made) solution and removed from a culture dish to suspend in an ordinary culture medium. These cells were inoculated again in 500 to 5000 cells for a 10 cm culture dish and cultured for 10 to 12 days to form a colony. The colony formed was fixed by 10% formaldehyde solution and stainedwith 0.01% crystal violet (Wako Pure Chemicals made) solution. Number of colony was counted and a Cell survival rate was calculated assuming that the number of colonies untreated with the anticancer drug is 1.
For reference, the proteasome inhibiting agent and the protease inhibiting agent not inhibiting proteasome used as described above were as follows. • (1) Proteasome inhibiting agent • . […] MG115 (carbobenzoxy-L-Leucyl-L-Leucyl-L-Norvalinal): final concentration 2.5 µM (Peptide Institute Inc. made) • . MG132 (carbobenzoxy-L-Leucyl-L-Leucyl-Leucinal) : final concentration 2.5 µM (Peptide Institute Inc. made) • . Lactacystin, final concentration 10 µM (Kindly supplied from The Kitasato Institute made) • (2) Protease inhibiting agent not inhibiting proteasome • . E64, final concentration 25 µM (Peptide Institute Inc. made) • . ZLLal (carbobenzoxy-L-Leucyl-L-Leucinal): final concentration 25 µM (Peptide Institute Inc. made)
The cell culture condition for both M phase-synchronized culture method and culture under the glucose starvation condition was as described in Example 1. M phase-synchronized cells were cultured in the culture medium, to which lactacystin of the final concentration 10 µM was added, or the culture medium, to which this was not added, as the proteasome inhibiting agent under the ordinary condition and the glucose starvation condition, respectively, for 13 hours. […]

topoisomerase IIα = experiment: Amount of expression of topoisomerase IIα in whole cell extract by western blotting; type: cell-based, human
Text: Topoisomerase II inhibiting anticancer drug stabilizes a complex (cleavable complex) consisting of the DNA and topoisomerase IIα occurring in a catalytic reaction process of topoisomerase IIα to cause DNA damage. Therefore, cell-killing effect of the topoisomerase II-inhibiting anticancer drug depends on the amount of intracellular expression of topoisomerase IIα essential for formation of the cleavable complex. Then, the amount of expression of topoisomerase IIα in the cultured cancer cell under the glucose starvation and hypoxia environment that are found in the solid cancer and the effect of the proteasome inhibiting agent to the amount of expression were examined.
The culture condition of cells is same as that described in Example 1 including the M phase synchronous culture method and culture under the glucose starvation condition. Culture under hypoxia condition, that is found in the solid cancer, similar to glucose starvation was carried out using the culture medium (that prepared by adding 5% FBS to RPMI1640 culture medium) under the ordinary condition in a Gaspack 100 anaerobic system (Becton Dickinson made). Culture under the glucose starvation condition and hypoxia condition was carried out for 14 hours .
With the purpose to prepare a whole cell extract solution, cells culture under the above described condition were washed with an ice-cooled PBS twice and then, cells were removed from the culture dish by using a cell scraper (Sumitomo Bakelite made) for collection. Cells collected were precipitated by centrifugation and then, dissolved in an SDS sample buffer to collect as the extract solution from all cells. For reference, the composition of the SDS sample buffer was 10% v/v, glycerol, 5% 2-mercaptoethanol, 2% SDS (sodium lauryl sulfate), and 62.5 mM tris-hydrochloric acid (pH 6.8).
The amount of topoisomerase IIα in the extract solution from all cells was measured by the western blotting method. The extract solution from all cells containing a total protein quantity of 30 µg was put on an SDS polyacrylamide gel (4-20 Multigel: Daiichi Pure Chemicals K.K. made) and subjected to electrophoresis in an electrophoresis buffer (25 mM tris, 192 mM glycine, and 0.1% SDS) in a 40 mA constant current for 1 hour. Subsequently, blotting was carried out in 4°C blotting buffer (25 mM tris, 192 mM glycine, and 20% methanol) in a 50 V constant voltage for 12 hours to transfer a protein separated in the SDS polyacrylamide gel to a nitrocellulose membrane. This nitrocellulose membrane was soaked in a blocking buffer (0.1% Tween 20, 4% skim milk-added PBS) for 1 hour to carry out blocking. The nitrocellulose membrane blocked was soaked in a solution, that was prepared by adding anti-topoisomerase IIα antibody (Cambridge Research Biochemicals Corp. made) of the final concentration 1 µg/ml as the primary antibody to the blocking buffer solution, for 1 hour. The nitrocellulose membrane was washed with the blocking buffer three times (5 minutes once), and then, soaked in the solution, in which a 1/1000 volume of an antimouse antibody (Amersham Pharmacia Biotech made) labeled with horse radish peroxidase as a secondary antibody had been added to the blocking buffer, for 1 hour. The nitrocellulose membrane was washed with the blocking buffer three times (5 minutes once), and then, washed with the PBS, to which 0.1% Tween 20 was added, three times (5 minutes once). The nitrocellulose membrane after completion of antibody reaction and washing was treated with the ECL reagent (Amersham Pharmacia Biotech made) after a handling manual and a topoisomerase IIα-specific signal was detected on an X-OMAT™AR film (Kodakmade). For reference, steps after blotting was carried out in a room temperature. […]
The cell culture condition for both M phase-synchronized culture method and culture under the glucose starvation condition was as described in Example 1. […]

[2] = glucose starvation condition 14 hours, PSI, MG115, MG132 5 µM, lactacystin 10 µM, E64, ZLLal 50 µM, FIG. 5(a)-(c)
[3] = glucose starvation condition, final concentration of 2.5 µM, not presented as data

Structure (SMILES)	effect of each inhibiting agent on etoposide sensitivity ([1]; glucose starvation condition)	expressed amount of topoisomerase IIα (topoisomerase IIα; [2])	expressed amount of topoisomerase IIα (topoisomerase IIα; [3])	other results
N.N.[Cl][Pt][Cl] [cisplatin]				sensitivity of cancer cells to cisplatin ([1]; under the stress environment (glucose starvation), cisplatin 4 hours, FIG. 18): high sensitivity
CC(C)C[C@@H](C=O)NC(=O)[C@H](CC(C)C)NC(=O)OCc1ccccc1 [ZLLal, carbobenzoxy-L-Leucyl-L-Leucinal]	seldom change sensitivity to etoposide	the expressed amount of topoisomerase IIα very dropped		
CC[C@H](C)[C@H](NC(=O)OCc1ccccc1)C(=O)N[C@@H](CCC(=O)OC(C)(C)C)C(=O)N[C@@H](C)C(=O)N[C@H](C=O)CC(C)C [PSI, carbobenzoxy-L-Isoleucyl-γ-t-Butyl-L-Glutamyl-L-Alany 1-L-Leucinal] (Cbz-IE(OtBu)AL-aldehyde)		the expressed amount of topoisomerase IIα does not drop	inhibited similarly decrease in expression of topoisomerase IIα	sensitivity to etoposide of cancer cells, effect of inhibiting agent ([1]; glucose starvation condition, PSI 2.5 µM, 13 hours, then etoposide 1 hour, FIG. 1): cells show sensitivity to etoposide even in the glucose starvation condition; change of cell-killing effect of camptothecin ([1]; glucose starvation condition): also enhance the effect of camptothecin
CCC[C@@H](C=O)NC(=O)[C@H](CC(C)C)NC(=O)[C@H](CC(C)C)NC(=O)OCc1ccccc1 [MG115, carbobenzoxy-L-Leucyl-L-Leucyl-L-Norvalinal] (Cbz-Leu-Leu-[Nva]-aldehyde)	enhance sensitivity of cells to etoposide	the expressed amount of topoisomerase IIα does not drop	inhibited similarly decrease in expression of topoisomerase IIα	
CC(C)C[C@H](NC(=O)[C@H]1O[C@@H]1C(=O)O)C(=O)NCCCCNC(=N)N [E64]	seldom change sensitivity to etoposide	the expressed amount of topoisomerase IIα very dropped		
CC(=O)NCCSC(=O)[C@]1([C@@H](O)C(C)C)NC(=O)[C@H](C)[C@@H]1O [decarboxy lactacystin]				change of cell-killing effect of etoposide ([1]; decarboxy lactacystin 5 µM 13 hours, etoposide 4 hours, ordinary and glucose starvation condition, FIG. 19 top): enhances the cell-killing effect of etoposide; change of cell-killing effect of SN38 ([1]; ordinary condition, decarboxy lactacystin 5 µM 13 hours, SN38 4 hours, FIG. 20): enhances the cell-killing effect of SN38; amount of expression of topoisomerase IIα (topoisomerase IIα; glucose starvation condition 13 hours, decarboxy lactacystin 0.5, 1, 2.5, and 5 µM, FIG. 19 bottom): inhibits lowering of expression of topoisomerase IIα by glucose starvation
CC(C)C[C@@H](C=O)NC(=O)[C@H](CC(C)C)NC(=O)[C@H](CC(C)C)NC(=O)OCc1ccccc1 [MG132, carbobenzoxy-L-Leucyl-L-Leucyl-Leucinal] (Cbz-Leu-Leu-Leu-aldehyde)	enhance sensitivity of cells to etoposide	the expressed amount of topoisomerase IIα does not drop	inhibited similarly decrease in expression of topoisomerase IIα	change of cell-killing effect of camptothecin ([1]; glucose starvation condition): also enhance the effect of camptothecin
